In PMC8421423, “Cellular model system to dissect the isoform-selectivity of Akt inhibitors” (Nature Communications, 2021):
Values joined by “and” are separate entries in the source; they are usually repeats but may differ in a detail not shown here. Identical values can stand only once. Like-named read-outs stand apart in the source and are kept apart here.

Legend:
[1] = tested on: parental Ba/F3 cells; test: CellTiter-Glo cell viability assay; format: cell-based, murine
[2] = tested on: pAkt^S473 and downstream targets in Ba/F3 myr-Akt1; details: Ba/F3 myr-Akt1, 4-h treatment
[3] = tested on: Ba/F3^myr-Akt1 cells; test: CellTiter-Glo cell viability assay; details: for Log ratio EC50 [Akt] / EC50 [Akt], Akt1 / Akt2: cell viability assay Ba/F3 myr-Akt cells, log units
[4] = tested on: Ba/F3^myr-Akt2 cells; test: CellTiter-Glo cell viability assay
[5] = target: T1, Akt1 (Homo sapiens, UniProt P31749, E114A/E115A/E116A); test: ESI-MS/MS of tryptic digest (modified cysteine residues); format: binding; details: 5-fold molar excess of inhibitor
T1 construct: AKT1(2–446, E114/115/116A); His6 with TEV protease recognition site (N, cleaved yes); made in house; host or cells: Spodoptera frugiperda (Sf9)
T1 sequence (P31749 2-446 E114A/E115A/E116A): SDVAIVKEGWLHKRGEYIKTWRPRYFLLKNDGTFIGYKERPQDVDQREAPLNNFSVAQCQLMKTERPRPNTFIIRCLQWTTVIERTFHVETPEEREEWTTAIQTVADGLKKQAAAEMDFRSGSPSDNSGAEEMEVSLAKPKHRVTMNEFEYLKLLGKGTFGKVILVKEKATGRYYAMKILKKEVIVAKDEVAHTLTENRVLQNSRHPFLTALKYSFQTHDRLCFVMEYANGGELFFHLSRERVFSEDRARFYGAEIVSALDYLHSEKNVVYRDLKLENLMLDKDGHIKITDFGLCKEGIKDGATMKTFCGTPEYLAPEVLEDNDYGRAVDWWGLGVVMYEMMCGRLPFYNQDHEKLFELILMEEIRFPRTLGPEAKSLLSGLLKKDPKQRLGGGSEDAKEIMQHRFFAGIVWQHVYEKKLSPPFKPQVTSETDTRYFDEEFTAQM
Description: ESI-MS/MS samples were prepared as stated above followed by steps of reduction, alkylation, and tryptic digest. The digested samples were stage tip-purified using C18 tips and according to a protocol described elsewhere. Subsequently, samples were thawed, dissolved in 20 μL of 0.1% TFA in water, sonicated at room temperature for 15 min, and centrifuged at 15,000×g for 1 min shortly before analysis. In all, 3 μL of sample were loaded onto a pre-column cartridge and desalted for 5 min using 0.1% TFA in water as eluent at a flow rate of 30 μL/min. The samples were back-flushed from the pre-column to the nano-HPLC column during the whole analysis. Elution was performed using a gradient starting at 5% B with a final composition of 30% B after 35 min (flow rate 300 nL/min) using 0.1% formic acid in water as eluent A and 0.1% formic acid in acetonitrile as eluent B and a column temperature of 40 °C. […] During the complete gradient cycle, a typical TOP10 shot-gun proteomics method for the MS and MS/MS analysis was used. For full scan MS experiments a mass range of m/z 300–1650 was scanned with a resolution of 70000. MS/MS experiments were followed by up to 10 high energy collision dissociation (HCD) MS/MS scans with a resolution of 17,500 of the most intense at least doubly charged ions. Data evaluation was performed using MaxQuant[50]. Spectra were searched against the specific Akt sequence and a contamination database using a false discovery rate of 1% on peptide and protein level using a decoy database for determination of the false discovery rate. For database search oxidation of methionine and N-terminal acetylation of proteins, carbamidomethylation of cysteines, and artificial modification of cysteines were defined as variable modifications.

[6] = tested on: Ba/F3^myr-Akt3 cells; test: CellTiter-Glo cell viability assay; details: for Log ratio EC50 [Akt] / EC50 [Akt], Akt3 / Akt2: cell viability assay Ba/F3 myr-Akt cells, log units
[7] = target: Akt1 (Homo sapiens, UniProt P31749); test: STK HTRF KinEASE activity-based assay (IC50); details: for Log ratio IC50 [Akt] / IC50 [Akt], Akt1 / Akt2: biochemical activity based assay, log units
Akt1 (Homo sapiens, UniProt P31749), sequence (P31749 whole entry): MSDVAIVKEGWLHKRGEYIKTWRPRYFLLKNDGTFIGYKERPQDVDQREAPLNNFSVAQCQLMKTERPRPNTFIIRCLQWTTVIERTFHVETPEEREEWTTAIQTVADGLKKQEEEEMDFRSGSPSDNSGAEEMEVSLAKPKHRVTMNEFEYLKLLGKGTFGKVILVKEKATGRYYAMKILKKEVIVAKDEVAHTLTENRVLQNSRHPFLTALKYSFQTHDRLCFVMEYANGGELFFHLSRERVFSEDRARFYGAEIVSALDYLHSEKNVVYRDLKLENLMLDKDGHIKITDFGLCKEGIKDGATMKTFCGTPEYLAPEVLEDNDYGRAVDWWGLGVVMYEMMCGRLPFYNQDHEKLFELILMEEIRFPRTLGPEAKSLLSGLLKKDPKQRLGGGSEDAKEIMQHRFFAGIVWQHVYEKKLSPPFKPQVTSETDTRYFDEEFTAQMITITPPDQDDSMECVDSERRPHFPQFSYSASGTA

[8] = target: T2, Akt2 (Homo sapiens, UniProt P31751); test: STK HTRF KinEASE activity-based assay (IC50)
T2 sequence (P31751 whole entry): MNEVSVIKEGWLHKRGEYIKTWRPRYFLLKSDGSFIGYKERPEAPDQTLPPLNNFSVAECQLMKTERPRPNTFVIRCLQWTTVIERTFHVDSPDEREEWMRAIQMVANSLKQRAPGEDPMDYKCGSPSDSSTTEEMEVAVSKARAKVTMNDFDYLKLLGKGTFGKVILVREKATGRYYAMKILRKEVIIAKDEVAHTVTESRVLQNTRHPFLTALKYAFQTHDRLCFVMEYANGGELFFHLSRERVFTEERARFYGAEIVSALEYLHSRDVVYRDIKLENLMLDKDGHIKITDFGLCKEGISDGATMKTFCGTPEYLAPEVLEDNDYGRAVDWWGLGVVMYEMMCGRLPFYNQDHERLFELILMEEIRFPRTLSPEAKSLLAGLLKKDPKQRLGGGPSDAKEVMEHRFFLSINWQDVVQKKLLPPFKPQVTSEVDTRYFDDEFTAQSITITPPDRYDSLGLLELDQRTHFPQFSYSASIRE

[9] = target: T3, Akt3 (Homo sapiens, UniProt Q9Y243); test: STK HTRF KinEASE activity-based assay (IC50)
T3 sequence (Q9Y243 whole entry): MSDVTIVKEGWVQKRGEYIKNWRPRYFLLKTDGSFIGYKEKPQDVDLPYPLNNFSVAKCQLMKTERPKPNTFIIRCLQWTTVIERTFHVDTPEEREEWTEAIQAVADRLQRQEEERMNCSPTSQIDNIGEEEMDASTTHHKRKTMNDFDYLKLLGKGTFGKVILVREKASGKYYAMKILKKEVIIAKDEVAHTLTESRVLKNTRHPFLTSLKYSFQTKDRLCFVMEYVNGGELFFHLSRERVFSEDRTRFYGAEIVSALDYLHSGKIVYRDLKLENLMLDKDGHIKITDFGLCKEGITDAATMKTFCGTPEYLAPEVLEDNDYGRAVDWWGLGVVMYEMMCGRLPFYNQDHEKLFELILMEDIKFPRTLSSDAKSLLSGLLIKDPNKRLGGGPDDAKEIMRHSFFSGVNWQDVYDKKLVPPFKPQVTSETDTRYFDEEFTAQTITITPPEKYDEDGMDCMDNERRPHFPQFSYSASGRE

[10] = target: T2, Akt2; test: PhosphoSens continuous fluorometric kinetic enzyme assay
Description: (§1) By addition of either 8 nM Akt1, 2 nM Akt2, or 5 nM Akt3 (final concentrations) the reactions were initiated. […] Afterwards the kobs-values were plotted versus the inhibitor concentrations [I] and then fit to the following hyperbolic Eq.

[11] = target: T3, Akt3; test: as above
Description: as §1

[12] = Mus musculus, BaF3, parental cells, mean of replicates, read-out: CTG BaF3, Mean
[13] = parental cells, single replicates, read-out: CTG BaF3, individual determinations
[14] = Mus musculus, read-out: CTG BaF3myr-Akt1, Mean, mean of replicates
[15] = Mus musculus, read-out: CTG BaF3myr-Akt1, individual determinations, single replicates
[16] = read-out: CTG BaF3myr-Akt1, individual determinations, single replicates
[17] = Mus musculus, read-out: CTG BaF3myr-Akt2, Mean, mean of replicates
[18] = Mus musculus, read-out: CTG BaF3myr-Akt2, individual determinations, single replicates
[19] = read-out: CTG BaF3myr-Akt2, individual determinations, single replicates
[20] = Mus musculus, BaF3, parental cells, single replicates, read-out: CTG BaF3, individual determinations
[21] = Mus musculus, read-out: CTG BaF3myr-Akt3, Mean, mean of replicates
[22] = Mus musculus, read-out: CTG BaF3myr-Akt3, individual determinations, single replicates
[23] = read-out: CTG BaF3myr-Akt3, individual determinations, single replicates
[24] = HTRF IC50 Akt1, Mean, mean of replicates
[25] = HTRF IC50 Akt1, individual determinations, single replicates
[26] = IC50 Akt1, HTRF, ATP at KM, 1 h preincubation
[27] = HTRF IC50 Akt2, Mean, mean of replicates
[28] = HTRF IC50 Akt2, individual determinations, single replicates
[29] = IC50 Akt2, HTRF, ATP at KM, 1 h preincubation
[30] = IC50 Akt3, HTRF, ATP at KM, 1 h preincubation

| SMILES | EC50 [1, 12] [µM] | EC50 [1, 13] | EC50 [3, 14] [µM] | EC50 [3, 15] [µM] | EC50 [3, 16] | EC50 [4, 17] [µM] | EC50 [4, 18] [µM] | EC50 [4, 19] | EC50 [1, 20] [µM] | Log ratio EC50 [Akt] / EC50 [Akt], Akt1 / Akt2 [3] | EC50 [6, 21] [µM] | EC50 [6, 22] [µM] | Log ratio EC50 [Akt] / EC50 [Akt], Akt3 / Akt2 [6] | EC50 [6, 23] | IC50 [7, 24] [µM] | IC50 [7, 25] | IC50 [7, 26] [µM] | Log ratio IC50 [Akt] / IC50 [Akt], Akt1 / Akt2 [7] | IC50 [8, 27] [µM] | IC50 [8, 28] | further results |
| --- | --- | --- | --- | --- | --- | --- | --- | --- | --- | --- | --- | --- | --- | --- | --- | --- | --- | --- | --- | --- | --- |
| NC1(C(=O)N[C@@H](CCO)c2ccc(Cl)cc2)CCN(c2ncnc3[nH]ccc23)CC1 [Capivasertib, reference compound] | 16 | 11 µM and 13.9 µM and 23 µM | 1.07 | 1.29 | 0.706 µM and 1.2 µM and 1.1 µM | 0.938 | 1.14 | 1.07 µM and 0.6 µM | – | – | – | – | – | – | – | – | – | – | – | – | pAkt and downstream targets (immunoblot) [2]: less effective |
| C=CC(=O)Nc1ccc2[nH]c(=O)n(C3CCN(Cc4ccc(-c5ncc(CO)cc5-c5ccccc5)cc4)CC3)c2c1 [compound 3] | > 30 | > 30 µM | 28.3 | 26.6 | 28.3 µM | – | – | 21.2 µM and 12.4 µM and > 30 µM | > 30 | 0.13 | > 30 | > 30 | -0.15 | > 30 µM | 0.184 | 0.133 µM and 0.103 µM and 0.189 µM and 0.31 µM | 0.186 ± 0.079 | -0.71 | 0.961 | 1.02 µM and 0.724 µM and 1.14 µM | EC50 ([1]; Mus musculus, BaF3, CTG, parental BaF3 cell line, read-out: EC50 BaF3): > 30 µM; modified cysteine residues in Akt1 (MS/MS) [5]: Cys296 and Cys310; EC50 BaF3myr-Akt1 ([3]; CTG): generally inactive; EC50 BaF3myr-Akt3 ([6]; CTG): generally inactive; EC50 ([6]; Mus musculus, read-out: EC50 BaF3myr-Akt3, CTG): > 30 µM; IC50 [8, 29]: 0.961 ± 0.174 µM; IC50 [9, 30]: > 20 µM |
| C=CC(=O)Nc1ccc2[nH]c(=O)n(C3CCN(Cc4ccc(-c5ncc(Cc6cccnc6)cc5-c5ccccc5)cc4)CC3)c2c1 [compound 21] | 14.7 | 11.7 µM and 14.3 µM | 19.7 | 21.2 | 13.3 µM and 24.6 µM | 2.23 | 2.02 | 2.49 µM and 2.19 µM | 18.2 | 0.95 | 6.52 | 5.55 | -0.46 | 6.27 µM and 7.12 µM | 1.8 | 1.82 µM and 2.04 µM and 2.47 µM and 0.858 µM | 2.11 ± 0.268 | 1.30 | 0.0985 | 0.0929 µM and 0.124 µM and 0.104 µM | IC50 [8, 29]: 0.099 ± 0.006 µM; IC50 ([9]; HTRF IC50 Akt3, individual determinations, single replicates): 0.233 µM and 0.416 µM and 0.225 µM and 0.214 µM; IC50 [9, 30]: 0.272 ± 0.084 µM; Ki ([10]; Ki Akt2): 0.021 ± 0.005 µM; Ki ([10]; Ki Akt2, Mean, mean of replicates): 0.0213 µM; Ki ([10]; Ki Akt2, individual determinations, single replicates): 0.0272 µM and 0.0156 µM; kinact/KI ([10]; read-out: kinact /Ki Akt2): 12000 ± 5000 M⁻¹ s⁻¹; kinact ([10]; read-out: kinact Akt2): 0.000233 s⁻¹; kinact ([10]; read-out: kinact Akt2, individual determinations, single replicates): 0.000267 s⁻¹; kinact Akt2, individual determinations ([10]; single replicates): 0.017 min⁻¹ and 0.009 min⁻¹; Ki ([11]; Ki Akt3): 0.064 ± 0.004 µM; Ki ([11]; Ki Akt3, Mean, mean of replicates): 0.0638 µM; Ki ([11]; Ki Akt3, individual determinations, single replicates): 0.0626 µM and 0.0693 µM and 0.0594 µM; kinact/KI ([11]; read-out: kinact /Ki Akt3): 8000 ± 1000 M⁻¹ s⁻¹; kinact/KI ([11]; read-out: kinact /Ki Akt3, individual determinations, single replicates): 7000 M⁻¹ s⁻¹; kinact ([11]; read-out: kinact Akt3): 0.000517 s⁻¹; kinact ([11]; read-out: kinact Akt3, Mean, mean of replicates): 0.000517 s⁻¹; kinact ([11]; read-out: kinact Akt3, individual determinations, single replicates): 0.000433 s⁻¹; kinact /Ki Akt3, individual determinations ([11]; single replicates): 0.009; kinact Akt3, individual determinations ([11]; single replicates): 0.037 min⁻¹ and 0.031 min⁻¹ |
